Results taken from the supplement of paper PMC10307832.

Tests used:
Test in all cases: relative viability (nuclei count vs DMSO), 5 days (fraction); higher = more cells survive
[1] = compound: CCC1=CN=CN=C1N2CCN(CC2)CC3=NC4=C(N3)C=C(C=C4)C(F)(F)F + Cc1nc(Nc2ncc(C(=O)Nc3c(C)cccc3Cl)s2)cc(N2CCN(CCO)CC2)n1 [Dasatinib] (partner 0.075 µM)
In short: (§1)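 Cells from lung cancer lines were seeded into 1536-well plates and, one day later, dosed by pin tool. Treatments were either a single drug or a fixed dose of an anchor drug with five library-drug doses (not always all listed) in √10 steps. After 5 days, nuclei were stained in a one-step fixation (final 0.05% Triton X-100, 1% formaldehyde, 1 ug/ml Hoechst) and counted on 4× images, and relative viability is the treated-to-vehicle nuclei ratio, as the median of duplicate plates.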

[2] = compound: CCn1c(-c2nonc2N)nc2cnc(Oc3cccc(NC(=O)c4ccc(OCCN5CCOCC5)cc4)c3)cc21 + CC1(C)CCC(c2ccc(Cl)cc2)=C(CN2CCN(c3ccc(C(=O)NS(=O)(=O)c4ccc(N[C@H](CCN5CCOCC5)CSc5ccccc5)c(S(=O)(=O)C(F)(F)F)c4)cc3)CC2)C1 [Navitoclax] (partner 0.5 µM)
In short: as §1

Mirin + AZD7762 = compound: N=C1NC(=O)/C(=C/c2ccc(O)cc2)S1 [Mirin] + NC(=O)Nc1cc(-c2cccc(F)c2)sc1C(=O)N[C@H]1CCCNC1 [AZD7762] (partner 0.2 µM)
In short: as §1

[3] = compound: CCn1c(-c2nonc2N)nc2cnc(Oc3cccc(NC(=O)c4ccc(OCCN5CCOCC5)cc4)c3)cc21 + CC(=O)c1c(C)c2cnc(Nc3ccc(N4CCNCC4)cn3)nc2n(C2CCCC2)c1=O [Palbociclib] (partner 0.5 µM)
In short: as §1

Cell Line	relative viability ([1]; first compound 0.04 µM)	relative viability ([1]; first compound 0.1265 µM)	relative viability ([1]; first compound 0.4 µM)	relative viability ([1]; first compound 4 µM)	relative viability ([2]; first compound 0.04 µM)	relative viability ([2]; first compound 0.1265 µM)	relative viability ([2]; first compound 0.4 µM)	relative viability ([2]; first compound 1.265 µM)	relative viability ([2]; first compound 4 µM)	relative viability (Mirin + AZD7762; first compound 0.25 µM)	relative viability (Mirin + AZD7762; first compound 2.5 µM)	relative viability (Mirin + AZD7762; first compound 7.906 µM)	relative viability (Mirin + AZD7762; first compound 25 µM)	relative viability ([3]; first compound 0.04 µM)	relative viability ([3]; first compound 0.1265 µM)	relative viability ([3]; first compound 0.4 µM)	relative viability ([3]; first compound 1.265 µM)	relative viability ([3]; first compound 4 µM)	relative viability ([1]; first compound 1.265 µM)	relative viability (Mirin + AZD7762; first compound 0.7906 µM)
HARA	0.371	0.337	0.19	0.203	1.19	1.02	1.09	1.18	1.14	0.257	0.47	0.423	0.353	0.278	0.232	0.242	0.172	0.199		
HCC-15	0.632	0.552	0.597	0.594	0.876	0.636	0.693	0.586	0.708	0.589	1.33	1.28	1.18	0.758	0.665	0.673	0.596	0.7	0.624	0.973
HCC-78	0.327	0.416	0.374	0.363	1.05	0.782	0.848	0.878	0.926	0.583	0.671	0.658	0.68	0.446	0.445	0.525	0.533	0.452	0.316	0.863
HCC-366	0.566	0.655	0.567	0.629	1.25	1.14	1.04	0.178	0.0486	0.313	0.28	0.262	0.364	0.367	0.375	0.354	0.105	0.0645	0.583	0.541
HCC-827	0.323	0.298	0.313	0.355	1.09	0.98	0.982	1.02	0.841	0.209	0.242	0.157	0.225	0.49	0.541	0.501	0.455	0.481	0.364	0.184
HOP-62	0.589	0.584	0.539	0.653	1.26	1.07	1.05		1.06	0.729	0.478	0.549	0.383	0.45	0.371	0.424	0.279	0.365	0.626	1.08
LC-2-ad	0.489	0.542	0.508	0.484	0.522	0.439	0.508	0.214	0.167	0.836	0.825	0.933	0.817	0.563	0.469	0.455	0.355	0.307	0.507	0.812
LCLC-97TM1	0.881	0.765	0.668	0.897	0.481	0.333		0.463	0.442	0.212	0.263		0.329	0.276	0.245		0.27	0.281	0.816	
LK-2	0.325	0.314	0.257	0.318	0.989	0.928	0.467	0.349	0.686	0.22	0.338	0.209	0.185	0.627	0.787	0.541	0.568	0.673	0.258	
LOU-NH91	0.477	0.466	0.485	0.568	0.8	0.597	0.557	0.392	0.447	0.799	0.754	0.713	0.854	0.508	0.476	0.502	0.422	0.421	0.533	0.782
LU99A	0.718	0.511	0.458	0.7	0.98	0.82	0.841	0.849	0.741	0.351	0.355	0.294	0.28	0.502	0.399	0.392	0.405	0.392	0.602	0.349
LXF-289	0.161	0.21	0.242	0.209	1.05	1.05	1.09	0.991	1.06	1.07	1.16	1.36	1.47	0.67	0.654	0.6	0.585	0.548	0.191	1.3
NCI-H23	0.794	0.897	0.653	0.865	1.18	0.956		0.806	0.651	0.221	0.259	0.198	0.131	0.708	0.521	0.547	0.394	0.353	0.769	
NCI-H322M	0.261	0.257	0.258	0.249	1.39	1.16	1.28	1.26	1.32	0.508	0.51	0.551	0.57	0.543	0.51	0.487	0.451	0.486	0.239	0.653
NCI-H441	0.761	0.545	0.581	0.605	0.745	0.653	0.481	0.323	0.508	1.36	1.23	1.2	1.18	0.26	0.234	0.157	0.226	0.25	0.668	1.05
NCI-H460	0.583	0.467	0.544	0.541	1.07	1.01	1.13	0.393	0.26	0.625	0.665	0.661	0.876	0.213	0.126	0.101	0.056	0.073	0.472	0.921

Cell Line	relative viability ([1]; first compound 0.04 µM)	relative viability ([1]; first compound 0.1265 µM)	relative viability ([1]; first compound 0.4 µM)	relative viability ([1]; first compound 4 µM)	relative viability ([2]; first compound 0.04 µM)	relative viability ([2]; first compound 0.1265 µM)	relative viability ([2]; first compound 0.4 µM)	relative viability ([2]; first compound 1.265 µM)	relative viability ([2]; first compound 4 µM)	relative viability (Mirin + AZD7762; first compound 0.25 µM)	relative viability (Mirin + AZD7762; first compound 2.5 µM)	relative viability (Mirin + AZD7762; first compound 7.906 µM)	relative viability (Mirin + AZD7762; first compound 25 µM)	relative viability ([3]; first compound 0.04 µM)	relative viability ([3]; first compound 0.1265 µM)	relative viability ([3]; first compound 0.4 µM)	relative viability ([3]; first compound 1.265 µM)	relative viability ([3]; first compound 4 µM)	relative viability ([1]; first compound 1.265 µM)	relative viability (Mirin + AZD7762; first compound 0.7906 µM)
NCI-H647	0.166	0.174	0.186	0.201	1.06	0.828	0.89	0.517	0.595	0.415	0.465	0.593	0.587	0.494	0.297	0.317	0.235	0.297	0.223	0.366
NCI-H727	0.407	0.38	0.364	0.314	0.476	0.564	0.46	0.441	0.382	0.595	0.841	0.47	0.443		0.63	0.599	0.657	0.622		0.612
NCI-H838	0.295	0.237	0.28	0.289	0.982	0.686	0.569	0.354	0.294	0.984	0.907	0.915	1.06	0.19	0.175	0.147	0.157	0.179	0.26	1.05
NCI-H1355	0.761	0.631	0.621	0.735	0.917	0.946	1.01	0.952	0.968	0.776	0.845	0.66	0.799	0.321	0.411	0.411	0.397	0.374	0.657	0.912
NCI-H1395	0.441	0.405	0.371	0.384	1.19	1.02	0.982	0.534	0.729	0.402	0.419	0.434	0.393	0.562	0.558	0.565	0.457	0.482	0.442	
NCI-H1437	0.339	0.369	0.386	0.22	1.1	1.09	1.02	0.747	0.607	1.06	1.11	1.1	1.06	0.355	0.367	0.389	0.279	0.331	0.328	1.18
NCI-H1651	0.542	0.294	0.403	0.368	1.17	1.14	1.05	0.925	0.471	0.424	0.532	0.308	0.477	0.587	0.584	0.476	0.369	0.432	0.386	0.598
NCI-H1666	0.777	0.685	0.742	0.865	1.09	1.28	1.07	0.648	0.495	0.908	0.909	0.757	0.917	0.635	0.64	0.613	0.57	0.538	0.783	1.06
NCI-H1734	0.403	0.532	0.522	0.441	1.11	0.81	0.684	0.564	0.345	0.529	0.549	0.498	0.483	0.335	0.365	0.293	0.319	0.267	0.476	0.42
NCI-H1755	0.427	0.396	0.416	0.381	1.06	1.01	0.944	0.992	0.996	0.503	0.472	0.383	0.453	0.457	0.46	0.397	0.454	0.424	0.375	0.431
NCI-H1792	1	0.754	0.515	0.602	0.732	0.58		0.348	0.518	0.729	0.826	0.636	0.77	0.694	0.583		0.542	0.582	0.685	0.803
NCI-H1793	0.392	0.382	0.32	0.307	0.315	0.38	0.305	0.191	0.238	0.468	0.631	0.404	0.348	0.263	0.304	0.3	0.283	0.251		
NCI-H1915	0.276	0.318	0.283	0.319	0.829	0.797	0.764	0.575	0.762	0.674	0.712	0.59	0.745	0.522	0.524	0.516	0.386	0.376	0.298	0.726
NCI-H1944	0.228	0.217	0.211	0.22	1.03	1.03		1.02	0.97	0.555	0.537	0.381	0.381	0.269	0.377	0.342	0.329	0.38	0.208	0.569
NCI-H1975	0.402	0.435	0.385	0.293	0.827	0.818	0.763	0.372	0.286	0.699	0.689	0.729	0.725	0.476	0.446	0.273	0.23	0.474	0.325	0.91
NCI-H1993	0.608	0.553	0.545	0.581	0.795	0.941		0.902	0.787	0.897	0.679	0.808	0.971	0.479	0.659	0.642	0.695	0.626	0.521	0.628
